Results: patent US20130072532A1, “TOPICAL TRANSDERMAL DEXMEDETOMIDINE COMPOSITIONS AND METHODS OF USE THEREOF” (priority 2010, published 2013)
Like-named read-outs stand apart in the source and are kept apart here.

Columns and labels:
[1] = clinical; settings: human, in vivo
Description: Dexmedetomidine plasma concentration-time data from clinical study # REC-10-006 were used in predicting the steady-state concentration-time profiles resulting from once-daily (QD) and twice-daily (BID) topical application of a 0.25, 0.5, and 1-gram dose. The data from the following 3 subjects were used: 1001, 1004, and 1005. The three subjects participated in the following treatment arms: Treatment A (0.25-gram dose), Treatment C (0.5-gram dose), and Treatment E (1.0-gram dose). Clinical study # REC-10-006 was a single ascending-dose study with multiple treatment arms (Treatments A, B, C, D and E). Plasma samples for drug analysis were taken at pre-dose (0 hour) and at the following specified times after dosing: 0.5, 1, 1.5, 2, 3, 4, 6, 8, 10, 12, 18, 24, 30, 36, and 48 hours. The lower limit of quantification of the bioanalytical assay was 0.02 ng/mL.
All pharmacokinetic parameters were analyzed using compartmental analysis. Dexmedetomidine plasma concentration-time data from Period 1 (REC-10-006) were used in predicting the steady-state concentration-time profiles resulting from once-daily (QD) and twice-daily (BID) topical application of 0.25-, 0.5- and 1.0-gram doses. The data used were from three subjects (Identifiers 1001, 1004, and 1005) who participated in treatment arms A (0.25-gram dose), C (0.5-gram dose), and E (1.0-gram dose). Blood samples for drug analysis were taken at pre-dose and at the following specified times after dosing: 0.25, 0.5, 0.75, 1, 1.5, 2, 2.5, 3, 4, 5, 6, 7, 8, 12, 24, 48, and 72 hours. […] Once the PK parameters were calculated and the single-dose concentrations were generated, the data were imported into WinNonlin™, Version 5.2 (WinNonlin™ Copyright ©2008, Pharsight Corporation), a nonparametric superposition was carried out to predicted the steady-state plasma concentration-time profiles resulting from QD and BID dosing.
As stated previously, the PK parameters were calculated using nonlinear-mixed-effect model using the software MonoLix 3.1. […]

[2] = humans, cited from earlier work
[3] = human subjects, buccal administration; cited from earlier work
[4] = tested on: α2-aderenoceptor; settings: selective α2-adrenoceptor agonist; cited from earlier work

Cc1cccc([C@H](C)c2cnc[nH]2)c1C [dexmedetomidine, 5-[(1S)-1-(2,3-dimethylphenyl)ethyl]-1H-imidazole]
period of absorption at a constant rate [1]: ~20 h | portion of the plasma concentrations below the quantifiable level of 0.02 ng/mL [1]: 67% | half-life ([1]; topical or ocular): ~15 h | time to maximum concentration in blood ([2]; i.m. administration): 1.6 to 1.7 h | time to maximum concentration in blood ([2]; transdermal administration): 6 h | time of maximum concentration [3]: approximately 1.5 h | selectivity relative to that of clonidine [4]: approximately 10 fold
